Experimental data: patent publication US7932270B2 (Cytokinetics, Inc., priority 2006, dated 2011)

These compounds were tested against T1, chicken gizzard smooth muscle myosin subfragment-1 chemically crosslinked to cardiac or skeletal actin (Gallus gallus, UniProt P10587) (assay: Smooth muscle myosin ATPase dose response assay (pyruvate kinase/horseradish peroxidase/pyruvate oxidase-coupled, amplex red fluorescence)). Settings: read-out: IC50 Arithmetic Mean.
T1 construct: chicken gizzard smooth muscle myosin subfragment-1; from tissue; host or cells: chicken gizzard
Format: biochemical
How it was run: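 Readout is amplex red signal from coupled ATPase of actin-crosslinked gizzard myosin S1 (0.15 mM ATP, 12 mM K-PIPES, pH 7.00). IC50 is the half-maximal activity point of a four-parameter Hill fit.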

T1 sequence (P02607 2-151): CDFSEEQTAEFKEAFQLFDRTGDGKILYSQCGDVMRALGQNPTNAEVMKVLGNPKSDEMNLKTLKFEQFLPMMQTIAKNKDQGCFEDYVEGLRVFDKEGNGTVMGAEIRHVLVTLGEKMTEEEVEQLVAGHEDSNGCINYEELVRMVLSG
T1 sequence (P10587 84-789): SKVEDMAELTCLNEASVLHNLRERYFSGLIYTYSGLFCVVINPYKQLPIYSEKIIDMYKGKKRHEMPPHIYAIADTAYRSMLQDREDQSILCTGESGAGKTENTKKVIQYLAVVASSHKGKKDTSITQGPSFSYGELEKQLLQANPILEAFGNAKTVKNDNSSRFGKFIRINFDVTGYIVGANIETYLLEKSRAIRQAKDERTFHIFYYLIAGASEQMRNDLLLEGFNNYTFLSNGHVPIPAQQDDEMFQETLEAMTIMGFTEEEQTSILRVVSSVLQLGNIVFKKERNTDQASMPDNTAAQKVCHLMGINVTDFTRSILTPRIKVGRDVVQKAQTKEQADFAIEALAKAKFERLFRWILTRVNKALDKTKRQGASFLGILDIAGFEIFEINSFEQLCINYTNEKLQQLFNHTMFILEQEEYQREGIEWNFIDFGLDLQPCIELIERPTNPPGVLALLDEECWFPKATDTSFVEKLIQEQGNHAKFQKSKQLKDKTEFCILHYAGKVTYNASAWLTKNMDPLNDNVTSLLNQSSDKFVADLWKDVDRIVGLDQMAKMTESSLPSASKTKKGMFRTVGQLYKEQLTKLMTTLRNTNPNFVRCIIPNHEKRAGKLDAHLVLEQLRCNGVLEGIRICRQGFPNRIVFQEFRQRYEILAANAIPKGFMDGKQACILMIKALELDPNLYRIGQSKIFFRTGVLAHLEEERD

Compound	IC50 [nM]
CNC(=O)[C@H](CN)NC(=O)c1ccc(-c2ccccc2C#N)nc1NCCc1cccc(F)c1 [(2S)-3-amino-2-[(6-(2-cyanophenyl)-2-{[2-(3-fluorophenyl)ethyl]amino}(3-pyridyl))carbonylamino]-N-methylpropanamide]	3450
N#Cc1ccccc1-c1ccc(C(=O)N[C@@H](CN)C(=O)O)c(NCCc2cccc(F)c2)n1 [(2S)-3-amino-2-[(6-(2-cyanophenyl)-2-{[2-(3-fluorophenyl)ethyl]amino}(3-pyridyl))carbonylamino]propanoic acid]	11100
NCc1cc(C(=O)NCc2cccnc2)c(NCCc2cccc(F)c2)nc1-c1ccccc1 [(5-(aminomethyl)-2-{[2-(3-fluorophenyl)ethyl]amino}-6-phenyl(3-pyridyl))-N-(3-pyridylmethyl)carboxamide]	8900
Cn1cc(-c2nc(NCCc3cccc(F)c3)c(C(=O)NCc3cccnc3)cc2Br)cn1 [(5-bromo-2-{[2-(3-fluorophenyl)ethyl]amino}-6-(1-methylpyrazol-4-yl)(3-pyridyl))-N-(3-pyridylmethyl)carboxamide]	23
O=C(NCc1cccnc1)c1cc(Br)c(-c2cn[nH]c2)nc1NCCc1cccc(F)c1 [(5-bromo-2-{[2-(3-fluorophenyl)ethyl]amino}-6-pyrazol-4-yl(3-pyridyl))-N-(3-pyridylmethyl)carboxamide]	21
N#Cc1ccccc1-c1nc(NCCc2cccc(F)c2)c(C(=O)NCc2cccnc2)cc1Br [(5-bromo-6-(2-cyanophenyl)-2-{[2-(3-fluorophenyl)ethyl]amino}(3-pyridyl))-N-(3-pyridylmethyl)carboxamide]	2650
Cn1cc(-c2nc(NCCc3cccc(F)c3)c(C(=O)NCc3cccnc3)cc2Cl)cn1 [(5-chloro-2-{[2-(3-fluorophenyl)ethyl]amino}-6-(1-methylpyrazol-4-yl)(3-pyridyl))-N-(3-pyridylmethyl)carboxamide]	21
N#Cc1ccccc1-c1nc(NCCc2cccc(F)c2)c(C(=O)NCc2cccnc2)cc1Cl [(5-chloro-6-(2-cyanophenyl)-2-{[2-(3-fluorophenyl)ethyl]amino}(3-pyridyl))-N-(3-pyridylmethyl)carboxamide]	512
Cn1cc(-c2nc(NCCc3cccc(F)c3)c(C(=O)NCc3cccnc3)cc2C#N)cn1 [(5-cyano-2-{[2-(3-fluorophenyl)ethyl]amino}-6-(1-methylpyrazol-4-yl)(3-pyridyl))-N-(3-pyridylmethyl)carboxamide]	21
N#Cc1ccccc1-c1nc(NCCc2cccc(F)c2)c(C(=O)NCc2cccnc2)cc1C#N [(5-cyano-6-(2-cyanophenyl)-2-{[2-(3-fluorophenyl)ethyl]amino}(3-pyridyl))-N-(3-pyridylmethyl)carboxamide]	318
Cn1cc(-c2nc(NCCc3cccc(F)c3)c(C(=O)NCC(C)(C)O)cc2F)cn1 [(5-fluoro-2-{[2-(3-fluorophenyl)ethyl]amino}-6-(1-methylpyrazol-4-yl)(3-pyridyl))-N-(2-hydroxy-2-methylpropyl)carboxamide]	381
Cn1cc(-c2nc(NCCc3cccc(F)c3)c(C(=O)NCC(C)(C)CO)cc2F)cn1 [(5-fluoro-2-{[2-(3-fluorophenyl)ethyl]amino}-6-(1-methylpyrazol-4-yl)(3-pyridyl))-N-(3-hydroxy-2,2-dimethylpropyl)carboxamide]	224
Cn1cc(-c2nc(NCCc3cccc(F)c3)c(C(=O)NCc3cccnc3)cc2F)cn1 [(5-fluoro-2-{[2-(3-fluorophenyl)ethyl]amino}-6-(1-methylpyrazol-4-yl)(3-pyridyl))-N-(3-pyridylmethyl)carboxamide]	12
Cn1cc(-c2nc(NCCc3cccc(F)c3)c(C(=O)NCc3cc[nH]n3)cc2F)cn1 [(5-fluoro-2-{[2-(3-fluorophenyl)ethyl]amino}-6-(1-methylpyrazol-4-yl)(3-pyridyl))-N-(pyrazol-3-ylmethyl)carboxamide]	20
Cn1cc(-c2nc(NCCc3cccc(F)c3)c(C(=O)NCC(CO)CO)cc2F)cn1 [(5-fluoro-2-{[2-(3-fluorophenyl)ethyl]amino}-6-(1-methylpyrazol-4-yl)(3-pyridyl))-N-[3-hydroxy-2-(hydroxymethyl)propyl]carboxamide]	134
O=C(NCc1ccccn1)c1cc(F)c(-c2cn[nH]c2)nc1NCCc1cccc(F)c1 [(5-fluoro-2-{[2-(3-fluorophenyl)ethyl]amino}-6-pyrazol-4-yl(3-pyridyl))-N-(2-pyridylmethyl)carboxamide]	24
O=C(NCc1cccnc1)c1cc(F)c(-c2cn[nH]c2)nc1NCCc1cccc(F)c1 [(5-fluoro-2-{[2-(3-fluorophenyl)ethyl]amino}-6-pyrazol-4-yl(3-pyridyl))-N-(3-pyridylmethyl)carboxamide]	18
O=C(NCc1cc[nH]n1)c1cc(F)c(-c2cn[nH]c2)nc1NCCc1cccc(F)c1 [(5-fluoro-2-{[2-(3-fluorophenyl)ethyl]amino}-6-pyrazol-4-yl(3-pyridyl))-N-(pyrazol-3-ylmethyl)carboxamide]	24

Compound	IC50 [nM]
O=C(NCC(CO)CO)c1cc(F)c(-c2cn[nH]c2)nc1NCCc1cccc(F)c1 [(5-fluoro-2-{[2-(3-fluorophenyl)ethyl]amino}-6-pyrazol-4-yl(3-pyridyl))-N-[3-hydroxy-2-(hydroxymethyl)propyl]carboxamide]	215
O=C(NCc1cccnc1)c1ccc(-c2nnn[nH]2)nc1NCCc1cccc(F)c1 [(6-(1H-1,2,3,4-tetraazol-5-yl)-2-{[2-(3-fluorophenyl)ethyl]amino}(3-pyridyl))-N-(3-pyridylmethyl)carboxamide]	78100
O=C(NCc1cccnc1)c1ccc(-c2ccc(F)cc2Cl)nc1NCCc1cccc(F)c1 [(6-(2-chloro-4-fluorophenyl)-2-{[2-(3-fluorophenyl)ethyl]amino}(3-pyridyl))-N-(3-pyridylmethyl)carboxamide]	1380
Cc1ccc(-c2ccc(C(=O)NCc3cccnc3)c(NCCc3cccc(F)c3)n2)c(Cl)c1 [(6-(2-chloro-4-methylphenyl)-2-{[2-(3-fluorophenyl)ethyl]amino}(3-pyridyl))-N-(3-pyridylmethyl)carboxamide]	2080
O=C(NCc1cccnc1)c1ccc(-c2cc(F)ccc2Cl)nc1NCCc1cccc(F)c1 [(6-(2-chloro-5-fluorophenyl)-2-{[2-(3-fluorophenyl)ethyl]amino}(3-pyridyl))-N-(3-pyridylmethyl)carboxamide]	1330
COc1ccc(Cl)c(-c2ccc(C(=O)NCc3cccnc3)c(NCCc3cccc(F)c3)n2)c1 [(6-(2-chloro-5-methoxyphenyl)-2-{[2-(3-fluorophenyl)ethyl]amino}(3-pyridyl))-N-(3-pyridylmethyl)carboxamide]	2000
O=C(NCc1cccnc1)c1ccc(-c2c(F)cccc2Cl)nc1NCCc1cccc(F)c1 [(6-(2-chloro-6-fluorophenyl)-2-{[2-(3-fluorophenyl)ethyl]amino}(3-pyridyl))-N-(3-pyridylmethyl)carboxamide]	540
N#Cc1sccc1-c1ccc(C(=O)NCc2cccnc2)c(NCCc2cccc(F)c2)n1 [(6-(2-cyano(3-thienyl))-2-{[2-(3-fluorophenyl)ethyl]amino}(3-pyridyl))-N-(3-pyridylmethyl)carboxamide]	33
N#Cc1cc(F)ccc1-c1ccc(C(=O)NCc2cccnc2)c(NCCc2cccc(F)c2)n1 [(6-(2-cyano-4-fluorophenyl)-2-{[2-(3-fluorophenyl)ethyl]amino}(3-pyridyl))-N-(3-pyridylmethyl)carboxamide]	38
Cc1ccc(-c2ccc(C(=O)NCc3cccnc3)c(NCCc3cccc(F)c3)n2)c(C#N)c1 [(6-(2-cyano-4-methylphenyl)-2-{[2-(3-fluorophenyl)ethyl]amino}(3-pyridyl))-N-(3-pyridylmethyl)carboxamide]	996
N#Cc1ccc(F)cc1-c1ccc(C(=O)NCc2cccnc2)c(NCCc2cccc(F)c2)n1 [(6-(2-cyano-5-fluorophenyl)-2-{[2-(3-fluorophenyl)ethyl]amino}(3-pyridyl))-N-(3-pyridylmethyl)carboxamide]	53
COc1ccc(C#N)c(-c2ccc(C(=O)NCc3cccnc3)c(NCCc3cccc(F)c3)n2)c1 [(6-(2-cyano-5-methoxyphenyl)-2-{[2-(3-fluorophenyl)ethyl]amino}(3-pyridyl))-N-(3-pyridylmethyl)carboxamide]	41
N#Cc1cccc(F)c1-c1ccc(C(=O)NCc2cccnc2)c(NCCc2cccc(F)c2)n1 [(6-(2-cyano-6-fluorophenyl)-2-{[2-(3-fluorophenyl)ethyl]amino}(3-pyridyl))-N-(3-pyridylmethyl)carboxamide]	86
N#Cc1ccccc1CCNc1nc(-c2ccccc2C#N)ccc1C(=O)NCc1cccnc1 [(6-(2-cyanophenyl)-2-{[2-(2-cyanophenyl)ethyl]amino}(3-pyridyl))-N-(3-pyridylmethyl)carboxamide]	44
N#Cc1ccccc1-c1ccc(C(=O)NCc2cccnc2)c(NCCc2ccccc2F)n1 [(6-(2-cyanophenyl)-2-{[2-(2-fluorophenyl)ethyl]amino}(3-pyridyl))-N-(3-pyridylmethyl)carboxamide]	28
N#Cc1ccccc1-c1ccc(C(=O)NCc2cccnc2)c(NCCc2ccccc2O)n1 [(6-(2-cyanophenyl)-2-{[2-(2-hydroxyphenyl)ethyl]amino}(3-pyridyl))-N-(3-pyridylmethyl)carboxamide]	380
Cc1ccccc1CCNc1nc(-c2ccccc2C#N)ccc1C(=O)NCc1cccnc1 [(6-(2-cyanophenyl)-2-{[2-(2-methylphenyl)ethyl]amino}(3-pyridyl))-N-(3-pyridylmethyl)carboxamide]	76
N#Cc1ccccc1-c1ccc(C(=O)NCc2cccnc2)c(NCC(O)c2cccc(F)c2)n1 (stereo not drawn) [(6-(2-cyanophenyl)-2-{[2-(3-fluorophenyl)-2-hydroxyethyl]amino}(3-pyridyl))-N-(3-pyridylmethyl)carboxamide]	339
